Test results published in PubChem BioAssay (NCI).
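Assay format: 96-well plates, 48-hour exposure. At the TGI there is no net growth.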

What was measured:
Assay in all cases: DTP human tumour cell line panel, 48 h
[1] = tested on: EKVX NSCLC
[2] = tested on: HL-60(TB) leukemia
[3] = tested on: K-562 leukemia
[4] = tested on: KM12 colon
[5] = tested on: MOLT-4 leukemia
[6] = tested on: NCI-H23 lung
[7] = tested on: SN12C renal
[8] = tested on: TK-10 renal
[9] = tested on: UO-31 renal
[10] = tested on: BT-549 breast

SMILES	TGI [1] [µM]	TGI [2] [µM]	TGI [3] [µM]	TGI [4] [µM]	TGI [5] [µM]	TGI [6] [µM]	TGI [7] [µM]	TGI [8] [µM]	TGI [9] [µM]	TGI [10] [µM]
CNc1ccc2c(c1)Cc1ccccc1-2	> 100	> 100	> 100	99.5	98.7	> 100	> 100	93.8	> 100	–
CCOC(=O)/C(=C/c1ccco1)P(=O)(OCC)OCC	> 100	> 100	> 100	> 100	> 100	> 100	> 100	> 100	> 100	–
CN(C)c1nc(=NCc2ccccn2)ss1	> 10	4.95	> 9.63	> 10	4.91	> 10	> 10	> 10	> 10	–
C=C1CC2C(=O)N(c3ccccc3)C(=O)C2CC1n1[nH]c(=O)n(Cc2ccccc2)c1=O (configuration not stated)	> 100	> 100	> 100	> 100	> 100	> 100	> 100	> 100	> 100	–
CC1=NC(C)(C)N(O)C1(C)C	> 100	> 100	> 100	> 100	> 100	> 100	> 100	> 100	> 100	–
O=C(c1ccccc1)[C@H]1Nc2cnccc2C2c3ccccc3CC21 (some centres not stated)	71	23.2	15.6	> 61.3	23.1	30.6	31.8	> 81.9	> 40.4	–
CN1c2ccccc2C(=O)NC12CCN(CC1COc3ccccc3O1)CC2 (configuration not stated)	> 100	> 100	> 100	> 100	77.1	> 100	–	> 100	> 100	–
COc1ccc(/C=N/Nc2nc3ccccc3c(=O)n2-c2ccccc2)c(OCc2ccccc2)c1	> 100	> 100	> 100	> 100	> 100	> 100	> 100	> 100	> 100	–
CCOC(=O)c1[nH]c2nc(SC)nc(NC)c2c1N	–	–	> 100	> 100	> 100	> 100	> 100	> 100	> 100	> 100
COc1cc(CCCOC2OC(COC3OCC(O)C(O)C3O)C(O)C(O)C2O)cc2cc(-c3ccc4c(c3)OCO4)oc12 (configuration not stated)	> 175	> 175	> 175	> 175	> 175	> 175	99.5	–	> 175	–
O=c1cc(-c2ccccc2F)[nH]c2cc3c(cc12)OCO3	–	1.09	> 15.7	17.1	> 18.3	6.8	> 27.1	98.2	> 100	–
C/C(=N\Nc1nc2ccccc2s1)c1cccnn1	33.5	–	> 100	> 100	> 100	20.2	> 100	–	71.2	60
CCN(CC)C(=S)SS(=O)(=O)c1ccc(C)cc1	> 100	–	> 100	30.6	–	> 100	49.7	> 100	51.2	68.2
Cc1cc(C)nc(NS(=O)(=O)c2ccc(Nc3c4ccccc4nc4c(C(=O)N5CCN(CCOS(C)(=O)=O)CC5)ccc(Cl)c34)cc2)n1	–	> 100	> 100	> 100	> 100	> 100	> 100	> 100	> 100	–
NC(=O)NC(=NCc1ccccc1)NCc1ccccc1	> 100	–	–	> 100	–	> 100	> 100	> 100	> 100	–
COC(=O)c1cc(C(=O)OC)cc(-c2ccc3c(c2)-c2nc4c(c(-c5ccc(OC)cc5)c2CC3)CCc2ccc(-c3cc(C(=O)OC)cc(C(=O)OC)c3)cc2-4)c1	31.3	–	1.06	> 100	–	> 100	> 100	> 100	> 100	> 100
COC(=O)C(=O)C(C(=O)C(=O)Nc1cc([N+](=O)[O-])ccc1C#N)c1nc2ccccc2[nH]c1=O (configuration not stated)	> 100	> 100	–	> 100	> 100	> 100	> 100	> 100	> 100	–
CCC1C(=O)OCc2c1cc1n(c2=O)CCC12OCCO2 (configuration not stated)	> 100	> 100	> 100	> 100	> 100	> 100	> 100	> 100	> 100	–
COc1cc(OC)c(C2c3cc4c(cc3OC(N3CCOCC3)C2C)OCO4)c(OC)c1 (configuration not stated)	> 100	–	> 100	> 100	> 100	> 100	> 100	> 100	> 100	–
CCOC(=O)C(NC(=O)c1ccc(N=NN(C)C)cc1)C(C)C (configuration not stated)	> 100	> 100	> 100	> 100	> 100	> 100	> 100	> 100	> 100	–
